The values that follow come from US20250314668A1, “DNAZYMES FOR SENSING AND IMAGING TARGET MOLECULES” (BOARD OF REGENTS, THE UNIVERSITY OF TEXAS SYSTEM, priority 2024, published 2025).

In the oligonucleotide strings, read from the 5' end, every base follows the letter of its sugar. An asterisk marks phosphorothioate; unmarked linkages are phosphodiester. Other units and linkages are bracketed, terminal groups are in braces. A string of capitals states the bases alone. d = 2'-deoxy (DNA); r = 2'-OH (RNA)

The nature of series [1]: Fluorescence based activity assay of Cu^2+ sensor. Format: biochemical. Conditions: fluorescence at 520 nm, 30 min. Here is the method:
(§1) Fluorescence based activity assay: For Cu^+ sensor, […] of Cu1 aS Cy5 and 9 µM of Cu1 aE Q were annealed in a buffer of 50 mM Bis-Tris, 150 mM NaCl, pH 7.5. For each test, 2 μL of the annealed sensor was diluted into 194 μL of buffer (50 mM Bis-Tris, 150 mM NaCl, pH 7.5), and 2 μL of 5 mM ascorbate was added. Then 2 μL of 2 μl different concentration of Cu^2+ were added. The signaling kinetics were monitored (Ex=635 nm; Em=666 nm) using Hitachi fluorimeter. For Cu^2+ sensor, the DNAzyme complex was formed by annealing the 5 μM of Cu2 PSrS FAM and 7.5 μM Cu2 aE Q in 50 mM MES, 25 mM NaCl, pH 6.0. For each well, 2 μL of the annealed sensor was diluted into 196 μL of buffer (50 mM MES, 25 mM NaCl, pH 6.0). 2 μL different concentration of Cu^2+ were added to initiate cleavage reaction, and the signaling kinetics were monitored (Ex=488 nm; Em=520 nm) using Hitachi fluorimeter.

Series [2] is described as follows: Gel based activity assay of Cu^2+ DNAzyme. Type of series: biochemical. Here is the method:
(§2) FIG. 10 depicts gel and fluorescence-based activity assay for Cu^+ and Cu^2+ DNAzyme. PAGE Gel images of Cu^+ DNAzyme cleaving the substrate in the presence of various concentrations of Cut. Lane 1: Cu^+ aS, Lane 2: Cu^+ aE, Lane 3-10: the concentration of Cu^2+ is 0 nM, 125 nM, 250 nM, 500 nM, 1 μM, 2 μM, 4 μM, and 8 μM, respectively, the concentration of ascorbate is 50 μM. Quantification of Cu^+. Inset is the linear response at low Cu^+ concentrations. denaturing gel images of Cu^2+ DNAzyme cleaving the substrate in the presence of various concentrations of Cu^2+. Lane1-8: the concentration of Cu^2+ is 0 μM, 1 μM, 2 μM, 4 μM, 6 μM, 8 μM, 10 μM, and 20 μM, respectively. Quantification of Cu^2+. Inset: the linear response at low Cu^2+ concentrations.
(§3) Gel based activity assays: For Cu^+ DNAzyme, 1 μM of Cu1 aS and 2 μM of Cu1 aE were added in 50 mM Bis-Tris, 150 mM NaCl, pH 7.5. The solution was heated at 90° C. for 5 min and slowly cooled down to room temperature for more than 1 h to anneal the DNAzyme. After annealing, each sample contains a final of 5 μL of 0.25 μM DNAzyme complex. 2 ul of 50 μM of freshly prepared ascorbate was mixed with DNAzyme complex. After adding 2 μl different concentration of Cu^2+, incubated at room temperature for 60 min. […] The gels were analyzed with Bio-Rad Gel Doc 2000 imaging system.

In series [3] the test system is corpus callosum brain region. The series is described as follows: Iron changes in the cuprizone model of Multiple Sclerosis. Format: in vivo, mice. Conditions: over the course of cuprizone treatment; back to normal upon removal. Here is the method:
The study also co-stained the sensors with other antibodies to identify cell identities in neuron degenerative diseases, such as Alzheimer's disease. The antibody staining was performed before staining iron sensors. After traditional immunochemistry staining (need to avoid antigen exposures that require H2O2 or other oxidative reagents), brain slices were changed into the BisTris buffer for iron sensors and incubated with iron sensors for 30 minutes. Then the brain slices were mounted onto slices and imaged immediately to minimize the background cleavage or degradation of the sensors. The iron redox changes in specific cell types were evaluated by taking images with a confocal microscope and analyzing the iron signal that colocalized with specific antibodies. […] The study also observed a decrease in iron levels in microglial cells of wildtype mice brains in the hippocampal region, but an increase in iron levels in 3×Tg mice brains. […] More detailed investigations are still going on to test how they are correlated with this disease process.
With a similar technique, the iron changes were studied with the cuprizone model of Multiple Sclerosis as well. […] The Fe^3+/Fe^2+ elevation was back to normal upon the removal of the chemical, and remyelination of the mice brains.

A short description of series [4]: Fluorescence based activity assay of Cu^+ sensor. Type of series: biochemical. The settings on record: fluorescence at 666 nm, 30 min. The protocol: as §1
The nature of series [5]: Gel based activity assay of Cu^+ DNAzyme. Format: biochemical. The protocol: as §2, §3

Turning to “Cu^2+ DNAzyme: substrate strand Cu2 PSrS annealed with enzyme strand Cu2 aE (chain 1 dAdGdTdCdAdCdTdAdTrA*dGdGdAdAdGdAdTdGdGdCdGdAdAdA; chain 2 TTTCGCCATCTTCACCAGGAAATAGTGACT; chain 2: unmodified DNA)”, the detection limit in series [1] is given as 35.16 nM. Moreover, in series [2], the “activity with high ascorbic” value is “no activity” and the “selectivity between copper oxidation states” value is given as “excellent selectivity”.

Consider `O=C(NN=C1CCCCC1)C(=O)NN=C1CCCCC1` [cuprizone], for which the “iron redox (Fe^3+/Fe^2+) in corpus callosum” value in series [3] was “elevated iron redox”.

B1: Cu^+ DNAzyme: substrate strand Cu1 aS annealed with enzyme strand Cu1 aE (nucleic acid)
chain 1: AGCTTCTTTCTAATACGGCTTACCAC
chain 2: GTGGTAAGCCTGGGCCTCTTTCTTTTTAAGAAAGAAC
modifications: DNA, backbone not given here; Cy5 on substrate, Iowa Black RQ on enzyme, further chemistry not fully specified
notes: substrate strand Cu1 aS annealed with enzyme strand Cu1 aE
Molecule B1 registered a detection limit in series [4] of 53.92 nM. Further, the “selectivity between copper oxidation states” value in series [5] is listed as “excellent selectivity”. The “cleavage dependence on ascorbic” value in series [5] (no cleavage products at low concentrations of ascorbic) is “ascorbic concentration dependent cleavage”.
